The text below walks through data of patent publication US6528523B2, “Farnesyl protein transferase inhibitors” (Schering Corporation, priority 2000, dated 2003).

Some results are limits rather than exact numbers.

One series concerns Human tumor cells. The series is described as follows: Soft agar assay (anchorage-independent growth). It counts as cell-based. The following applies: colony outgrowth 10-16 days. Here is the method:
Anchorage-independent growth is a characteristic of tumorigenic cell lines. Human tumor cells are suspended in growth medium containing 0.3% agarose and an indicated concentration of a farnesyl transferase inhibitor. The solution is overlayed onto growth medium solidified with 0.6% agarose containing the same concentration of farnesyl transferase inhibitor as the top layer. After the top layer is solidified, plates are incubated for 10-16 days at 37° C. under 5% CO2 to allow colony outgrowth. After incubation, the colonies are stained by overlaying the agar with a solution of MTT (3-[4,5-dimethylthiazol-2-yl]-2,5-diphenyltetrazolium bromide, Thiazolyl blue) (1 mg/mL in PBS). Colonies are counted and the IC50's determined.

Series [1] addresses T1, Farnesyl protein transferase (FPT) (Rattus norvegicus, UniProt Q02293+Q04631).
T1 construct: partially purified from rat brain by ammonium sulfate fractionation followed by Q-Sepharose; from tissue; host or cells: rat brain
As to the kind of experiment: In vitro enzyme assay: inhibition of farnesyl protein transferase. It is filed as biochemical. Particulars: transfer of [3H]farnesyl from [3H]farnesyl pyrophosphate to Ras-CVLS. As to the method:
1. In Vitro Enzyme Assay:
Human farnesyl protein transferase was also expressed in E. coli, using cDNA clones encoding both the a and b subunits. […] Human farnesyl protein transferase was partially-purified from the soluble protein fraction of E. coli as described above. […] Two forms of val^12-Ha-Ras protein were prepared as substrates for these enzymes, differing in their carboxy terminal sequence. One form terminated in cysteine-valine-leucine-serine (Ras-CVLS) the other in cystein-valine-leucine-leucine (Ras-CVLL). Ras-CVLS is a substrate for the farnesyl protein transferase while Ras-CVLL is a substrate for geranylgeranyl protein transferase I. The cDNAs encoding these proteins were constructed so that the proteins contain an amino-terminal extension of 6 histidine residues. Both proteins were expressed in Escherichia coli and purified using metal chelate affinity chromatography. The radio labelled isoprenyl pyrophosphate substrates, [^3H]farnesyl pyrophosphate and [^3H] geranylgeranyl pyrophosphate, were purchased from DuPont/New England Nuclear.
The reaction was allowed to proceed for 30 minutes at room temperature and then stopped with 0.5 ml of 4% sodium dodecyl sulfate (SDS) followed by 0.5 ml of cold 30% TCA. Samples were allowed to sit on ice for 45 minutes and precipitated Ras protein was then collected on GF/C filter paper mats using a Brandel cell harvester. […] Percent inhibition was calculated relative to the DMSO vehicle control.

T1 sequence (Q02293 whole entry, one chain of several): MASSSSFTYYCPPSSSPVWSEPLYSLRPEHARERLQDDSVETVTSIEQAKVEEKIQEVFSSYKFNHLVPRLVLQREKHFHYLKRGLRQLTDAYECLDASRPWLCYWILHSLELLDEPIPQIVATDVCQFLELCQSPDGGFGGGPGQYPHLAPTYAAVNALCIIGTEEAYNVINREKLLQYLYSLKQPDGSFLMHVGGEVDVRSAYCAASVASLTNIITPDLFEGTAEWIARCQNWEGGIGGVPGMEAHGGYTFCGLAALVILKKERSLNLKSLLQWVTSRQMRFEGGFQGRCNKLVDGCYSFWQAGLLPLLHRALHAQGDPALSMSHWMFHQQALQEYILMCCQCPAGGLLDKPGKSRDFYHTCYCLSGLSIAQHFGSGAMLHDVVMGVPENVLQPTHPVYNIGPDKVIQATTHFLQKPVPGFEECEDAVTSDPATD

A word on the melting point: it is the temperature of the solid-liquid transition. Usually IC50 stands for the point on the concentration scale where inhibition reaches its midpoint. The molecule `O=C(Cc1cc[n+]([O-])cc1)N1CCC(C2c3ncc(Br)cc3C=Cc3cc(Cl)cc(Br)c32)CC1` (single isomer, unassigned) [Compound 11] showed a melting point of 137 to 139 °C. In the series on Human tumor cells, inhibition was half-maximal at 30 nM (IC50). The molecule further gave a concentration for half-maximal inhibition (IC50) in series [1] of 0.32 nM.
On the same counts, the results for `CS(=O)(=O)N1CCC(C2c3ncc(Br)cc3C=Cc3cc(Cl)cc(Br)c32)CC1` (single isomer, unassigned) [Compound 13] are 84 to 85 °C, > 500 nM and 3.3 nM.
For `O=C(Cc1cc[n+]([O-])cc1)N1CCC(C2c3ncc(Br)cc3C=Cc3cc(Cl)cc(Br)c32)CC1` (single isomer, unassigned) [Compound 12], the melting point was in the range of 142 to 143 °C. For the same molecule, in series [1], the IC50 was > 17 nM.
For `NC(=O)N1CCC(CC(=O)N2CCC(C3c4ncc(Br)cc4C=Cc4cc(Cl)cc(Br)c43)CC2)CC1` (single isomer, unassigned) [Compound 16] the same measures were 142 to 143 °C and 16 nM.
On to `CS(=O)(=O)N1CCC(C2c3ncc(Br)cc3C=Cc3cc(Cl)cc(Br)c32)CC1` (single isomer, unassigned) [Compound 14], for which the melting point was 91 to 92 °C. In addition, in series [1], the IC50 is > 18 nM.
Take `NC(=O)N1CCC(CC(=O)N2CCC(C3c4ncc(Br)cc4C=Cc4cc(Cl)cc(Br)c43)CC2)CC1` (single isomer, unassigned) [Compound 15]: the melting point fell in the range of 146 to 147 °C. The IC50 with Human tumor cells was determined as 50 nM. Also, half-maximal inhibition in series [1] (IC50) required 0.4 nM.
